Measured values as given in EP4603105A1, “PHARMACEUTICAL COMPOSITION CONTAINING CYCLIC COMPOUND HAVING SELECTIVE KRAS INHIBITORY EFFECT AGAINST HRAS AND NRAS” (CHUGAI SEIYAKU KABUSHIKI KAISHA, priority 2022, dated 2024).
Where a SMILES comes first, the peptide text is derived from it. Bridges are numbered along the chain shown (N, C = ends). [ ]: non-standard residue; d: D form. The star is where a group is joined. hPhe(3-Cl-4-CF3) = N[C@@H](CCc1ccc(C(F)(F)F)c(Cl)c1)C(=O)O; NPrPhe(4-CF3) = CCCN[C@@H](Cc1ccc(C(F)(F)F)cc1)C(=O)O; NEtPhe(4-CF3) = CCN[C@@H](Cc1ccc(C(F)(F)F)cc1)C(=O)O; NEtPhe(4-Me) = CCN[C@@H](Cc1ccc(C)cc1)C(=O)O; NMeGly(cPent) = CN[C@H](C(=O)O)C1CCCC1; NMeI = CC[C@H](C)[C@H](NC)C(=O)O; NMeD = CN[C@@H](CC(=O)O)C(=O)O; NMeL = CN[C@@H](CC(C)C)C(=O)O; Morpholide = C1CN(*)CCO1; NMeA = CN[C@@H](C)C(=O)O; Ac5c = NC1(C(=O)O)CCCC1; Aze = O=C(O)[C@@H]1CCN1; Sar = CNCC(=O)O

Experiments:
[1] = biological target: HRAS wild-type protein (Homo sapiens, UniProt P01112); assay: Binding to HRAS by surface plasmon resonance (SPR), KD and KD ratio to KRAS
Procedure, shortened: (§1)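 Measured at 30°C: SPR with GDP-loaded, E. coli-expressed biotin-Avi RAS captured (~100–300 RU), ascending 75 s compound injections, HBS pH 7.4 with GDP, MgCl2, 4% DMSO. KD from 1:1 fit.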

[2] = system: human lung cancer strain NCI-H441; assay type: cell-based
Procedure, shortened: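 Signal came from […] measured per well once the reagent was added. Beforehand, cells were cultured at 37°C and 5% carbon dioxide on a compound series serially diluted in dimethyl sulfoxide.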

[3] = biological target: GDP-bound NRAS wild-type protein (Homo sapiens, UniProt P01111); assay: Binding to NRAS by surface plasmon resonance (SPR), KD and KD ratio to KRAS
Procedure, shortened: as §1

[4] = ratio of KD for HRAS wild-type protein to KD for KRAS
[5] = ratio of KD for GDP-bound NRAS wild-type protein to KD for KRAS
[6] = ratio of the KD value with respect to HRAS wild-type protein to the KD value with respect to KRAS
[7] = ratio of the KD value with respect to GDP-bound NRAS wild-type protein to the KD value with respect to KRAS

Sequence of GDP-bound NRAS wild-type protein (P01111 whole entry): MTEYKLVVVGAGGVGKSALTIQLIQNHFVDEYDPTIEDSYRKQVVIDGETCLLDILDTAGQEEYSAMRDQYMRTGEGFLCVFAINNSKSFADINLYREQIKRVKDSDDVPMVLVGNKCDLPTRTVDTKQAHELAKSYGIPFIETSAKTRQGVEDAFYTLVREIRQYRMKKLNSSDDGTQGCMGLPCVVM
Sequence of HRAS wild-type protein (P01112 whole entry): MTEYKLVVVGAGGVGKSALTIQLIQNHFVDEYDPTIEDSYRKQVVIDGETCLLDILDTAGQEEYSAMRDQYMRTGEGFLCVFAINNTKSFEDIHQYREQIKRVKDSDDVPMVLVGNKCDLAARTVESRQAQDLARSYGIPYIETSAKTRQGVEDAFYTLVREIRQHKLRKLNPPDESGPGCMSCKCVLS

| SMILES | HRAS /KRAS [1, 4] | IC50 [2] [nM] | NRAS /KRAS [3, 5] | HRAS /KRAS [1, 6] | NRAS /KRAS [3, 7] | HRAS /KRAS ([1]; ratio of KD value for HRAS wild-type protein to KD value for KRAS (SPR)) | NRAS /KRAS ([3]; ratio of KD value for GDP-bound NRAS wild-type protein to KD value for KRAS (SPR)) |
| --- | --- | --- | --- | --- | --- | --- | --- |
| CCCN1C(=O)CN(C)C(=O)CN(C)C(=O)[C@H]([C@@H](C)CC)NC(=O)[C@H](CC(C)C)N(C)C(=O)C[C@@H](C(=O)N(C)C)NC(=O)[C@H](C2CCCC2)N(C)C(=O)C2(CCCC2)NC(=O)[C@@H]2CCCN2C(=O)[C@H](CCc2ccc(C(F)(F)F)c(Cl)c2)NC(=O)CN(C)C(=O)[C@@H]1Cc1ccc(C(F)(F)F)cc1 [PP0355] ([NMeL]I[Sar][Sar][NPrPhe(4-CF3)][Sar][hPhe(3-Cl-4-CF3)]P[Ac5c][NMeGly(cPent)]D-NMe2; lactam N-11) | B (a compound having 3 or more and less than 10 is denoted as B) | 48.2 | B (a compound having 3 or more and less than 10 is denoted as B) |  |  |  |  |
| CCO[C@@H]1C[C@H]2C(=O)NC3(CCC3)C(=O)N(C)[C@@H](C3CCCC3)C(=O)N(C)[C@H](C(=O)N3CCOCC3)CC(=O)N(C)[C@@H](CC3CCC3)C(=O)N[C@@H]([C@@H](C)CC)C(=O)N(C)CC(=O)N(C)[C@H]3CCCCN(C3=O)[C@@H](Cc3ccc(C(F)(F)F)cc3)C(=O)N(C)CC(=O)N[C@@H](CCc3cc(F)c(C(F)(F)F)c(F)c3)C(=O)N2C1 [PP0713] |  | 4.2 |  | B (a compound having 3 or more and less than 10 is denoted as B) | C (A compound having a KD ratio of 0.1 or more and less than 3 is denoted as C) |  |  |
| CCC[C@H]1C(=O)N[C@@H]([C@@H](C)CC)C(=O)N2CCC[C@H]2C(=O)N(C)[C@H]2C/C=C\CCN(C2=O)[C@@H](Cc2ccc(C(F)(F)F)cc2)C(=O)N(C)CC(=O)N[C@@H](CCc2ccc(C(F)(F)F)c(OC)c2)C(=O)N2C[C@H](OCC)C[C@H]2C(=O)N(C)C2(CCC2)C(=O)N(C)[C@@H](C2CCCC2)C(=O)N(C)[C@H](C(=O)N2CCCCC2)CC(=O)N1C [PP3099] | A (a compound having 10 or more and less than 20 is denoted as A) | 13.3 | A (a compound having 10 or more and less than 20 is denoted as A) |  |  |  |  |
| CC[C@H](C)[C@@H]1NC(=O)[C@H](CC(C)C)N(C)C(=O)C[C@@H](C(=O)N2CCOCC2)N(C)C(=O)[C@H](C2CCCC2)N(C)C(=O)C2(CCCC2)NC(=O)[C@@H]2CCCN2C(=O)[C@H](CCc2ccc(C(F)(F)F)c(Cl)c2)NC(=O)CN(C)C(=O)[C@H](Cc2ccc(C(F)(F)F)cc2)N(CC)C(=O)[C@@H]2CCN2C(=O)[C@H](C)N(C)C1=O [PP0002] ([NMeL]I[NMeA][Aze][NEtPhe(4-CF3)][Sar][hPhe(3-Cl-4-CF3)]P[Ac5c][NMeGly(cPent)][NMeD]-Morpholide; lactam N-11) | C (A compound having a KD ratio of 0.1 or more and less than 3 is denoted as C) | 2.1 | C (A compound having a KD ratio of 0.1 or more and less than 3 is denoted as C) |  |  |  |  |
| CC[C@H](C)[C@@H]1NC(=O)[C@H](CC(C)C)N(C)C(=O)C[C@@H](C(=O)N2CCOCC2)N(C)C(=O)[C@H](C2CCCC2)N(C)C(=O)C2(CC2)NC(=O)[C@@H]2CCCN2C(=O)[C@H](CCc2cc(F)c(C(F)(F)F)c(F)c2)NC(=O)CN(C)C(=O)[C@H](Cc2ccc(C(F)(F)F)cc2)N2CCCCC[C@@H](C2=O)N(C)C(=O)CN(C)C1=O [PP0496] |  | 399 |  | B (a compound having 3 or more and less than 10 is denoted as B) | B (a compound having 3 or more and less than 10 is denoted as B) |  |  |
| CCO[C@@H]1C[C@H]2C(=O)NC3(CC(C)(C)C3)C(=O)N(C)[C@@H](C3CCCC3)C(=O)N(C)[C@H](C(=O)N(C)C)CC(=O)N(C)[C@@H](CC(C)C)C(=O)N[C@@H]([C@@H](C)CC)C(=O)N(C)CC(=O)N(C)[C@H]3C/C=C\CCN(C3=O)[C@@H](Cc3ccc(C(C)C)cc3)C(=O)N(C)CC(=O)N[C@@H](CCc3ccc(C(F)(F)F)c(OC)c3)C(=O)N2C1 [PP2692] | A (a compound having 10 or more and less than 20 is denoted as A) | 7.7 | A (a compound having 10 or more and less than 20 is denoted as A) |  |  |  |  |
| CCC[C@H]1C(=O)N[C@@H]([C@@H](C)CC)C(=O)N(C2CC2)CC(=O)N(C)[C@H]2C/C=C\CCN(C2=O)[C@@H](Cc2ccc(C)cc2)C(=O)N(C)CC(=O)N[C@@H](CCc2cc(C)c(C(F)F)c(Cl)c2)C(=O)N2C[C@H](OCC)C[C@H]2C(=O)NC2(CC(C)(C)C2)C(=O)N(C)[C@@H](C2CCCC2)C(=O)N(C)[C@H](C(=O)N(C)C)CC(=O)N1C [PP2875] | A (a compound having 10 or more and less than 20 is denoted as A) | 121 | A (a compound having 10 or more and less than 20 is denoted as A) |  |  |  |  |
| CCO[C@@H]1C[C@H]2C(=O)NC3(CC(C)(C)C3)C(=O)N(C)[C@@H](C3CCCC3)C(=O)N(C)[C@H](C(=O)N(C)CC)CC(=O)N(C)[C@@H](COC)C(=O)N[C@@H]([C@@H](C)CC)C(=O)N(C)CC(=O)N(C)[C@H]3C/C=C\CCN(C3=O)[C@@H](Cc3ccc(C(F)(F)F)cc3)C(=O)N(C)CC(=O)N[C@@H](CCc3ccc(C(F)(F)F)c(OC)c3)C(=O)N2C1 [PP1679] |  | 3.1 |  |  |  | A (a compound having 10 or more and less than 20 is denoted as A) | A (a compound having 10 or more and less than 20 is denoted as A) |
| CC[C@H](C)[C@@H]1NC(=O)[C@H](CC(C)C)N(C)C(=O)C[C@@H](C(=O)N2CCOCC2)N(C)C(=O)[C@H]([C@@H](C)CC)N(C)C(=O)C2(CCCC2)NC(=O)[C@@H]2CCCN2C(=O)[C@H](CCc2ccc(C(F)(F)F)c(Cl)c2)NC(=O)CN(C)C(=O)[C@H](Cc2ccc(C)cc2)N(CC)C(=O)CN(C)C(=O)CN(C)C1=O [PP0043] ([NMeL]I[Sar][Sar][NEtPhe(4-Me)][Sar][hPhe(3-Cl-4-CF3)]P[Ac5c][NMeI][NMeD]-Morpholide; lactam N-11) | C (A compound having a KD ratio of 0.1 or more and less than 3 is denoted as C) | 20.4 | C (A compound having a KD ratio of 0.1 or more and less than 3 is denoted as C) |  |  |  |  |
| CCC[C@H]1C(=O)N[C@@H]([C@@H](C)CC)C(=O)N(C)CC(=O)N(C)[C@H]2C/C=C\CCN(C2=O)[C@@H](Cc2ccc(C(F)(F)F)cc2)C(=O)N(C)CC(=O)N[C@@H](CCc2ccc(Cl)c(Cl)c2)C(=O)N2C[C@H](OCC)C[C@H]2C(=O)NC2(CC(C)(C)C2)C(=O)N(C)[C@@H](C2CCCC2)C(=O)N(C)[C@H](C(=O)N(C)C)CC(=O)N1C [PP1932] |  | 13.1 |  | A (a compound having 10 or more and less than 20 is denoted as A) | A (a compound having 10 or more and less than 20 is denoted as A) |  |  |
| CC[C@H](C)[C@@H]1NC(=O)[C@@H]2CCCCCc3ccc(cc3)C[C@@H](C(=O)N(C)CC(=O)N[C@@H](CCc3ccc(C(F)(F)F)c(OC)c3)C(=O)N3C[C@H](OC4CCC4)C[C@H]3C(=O)NC3(CC(C)(C)C3)C(=O)N(C)[C@@H](C3CCCC3)C(=O)N(C)[C@H](C(=O)N(C)C)CC(=O)N2C)N2CC/C=C\C[C@@H](C2=O)N(C)C(=O)CN(C)C1=O [PP3073] | A (a compound having 10 or more and less than 20 is denoted as A) | 1.9 | A (a compound having 10 or more and less than 20 is denoted as A) |  |  |  |  |
| CCCOC[C@H]1C(=O)N[C@@H]([C@@H](C)CC)C(=O)N2CCC[C@H]2C(=O)N(C)[C@H]2C/C=C\CCN(C2=O)[C@@H](Cc2ccc(C(F)(F)F)cc2)C(=O)N(C)CC(=O)N[C@@H](CCc2ccc(C(F)(F)F)c(OC)c2)C(=O)N2C[C@H](OCC)C[C@H]2C(=O)N(C)C2(CCC2)C(=O)N(C)[C@@H](C2CCCC2)C(=O)N(C)[C@H](C(=O)N(C)C)CC(=O)N1C [PP2322] |  | 5.8 |  | B (a compound having 3 or more and less than 10 is denoted as B) | A (a compound having 10 or more and less than 20 is denoted as A) |  |  |
